According to patent US20240262832A1, “SMALL MOLECULE MODULATORS OF GLUCOCEREBROSIDASE ACTIVITY AND USES THEREOF” (Vanqua Bio, Inc., priority 2021, published 2024):

target: T1, GCase (Homo sapiens, UniProt P04062); assay: activation of GCase in a live cell PFB assay in HELA cells; assay type: cell-based
T1 construct: endogenous in cells; host or cells: HeLa cells
T1 sequence (P04062 40-536): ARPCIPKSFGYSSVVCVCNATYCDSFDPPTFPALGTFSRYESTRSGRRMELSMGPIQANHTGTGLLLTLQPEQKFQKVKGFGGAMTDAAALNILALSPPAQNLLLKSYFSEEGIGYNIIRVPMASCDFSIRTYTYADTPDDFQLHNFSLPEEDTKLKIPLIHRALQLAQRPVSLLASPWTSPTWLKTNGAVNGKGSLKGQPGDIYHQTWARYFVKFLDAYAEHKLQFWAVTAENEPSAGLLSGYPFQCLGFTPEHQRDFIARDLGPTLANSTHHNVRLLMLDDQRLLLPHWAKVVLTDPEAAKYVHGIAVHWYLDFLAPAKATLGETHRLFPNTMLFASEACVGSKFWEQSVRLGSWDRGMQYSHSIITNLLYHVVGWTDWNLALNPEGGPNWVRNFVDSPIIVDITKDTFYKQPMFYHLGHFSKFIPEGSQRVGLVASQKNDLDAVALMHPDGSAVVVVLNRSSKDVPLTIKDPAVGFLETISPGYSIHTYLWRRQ

| Structure (SMILES) | EC50 [µM] |
| --- | --- |
| Fc1nccc(OC[C@@H]2[C@H]3CN(c4cnc5cnn(C6COC6)c5n4)C[C@@H]23)c1F [Compound 228] | 10 to 50 |
| COCCn1ncc2ncc(N3C[C@@H](C)C[C@@H](COc4cccnc4C(F)(F)F)C3)nc21 [Compound 230a, 1-(2-Methoxyethyl)-6-((3S,5R)-3-methyl-5-(((2-(trifluoromethyl)pyridin-3-yl)oxy)methyl)piperidin-1-yl)-1H-pyrazolo[3,4-b]pyrazine] | 10 to 50 |
| COCCn1ncc2ncc(N3C[C@@H](C)C[C@H](COc4cccnc4C(F)(F)F)C3)nc21 [Compound 230b, 1-(2-Methoxyethyl)-6-((3S,5S)-3-methyl-5-(((2-(trifluoromethyl)pyridin-3-yl)oxy)methyl)piperidin-1-yl)-1H-pyrazolo[3,4-b]pyrazine] | < 10 |
| CC(C)c1cc(C(=O)N2CC(COc3cccnc3C(F)(F)F)CCC2C)[nH]n1 (stereo not drawn) [Compound 231, (3-isopropyl-1H-pyrazol-5-yl)(2-methyl-5-(((2-(trifluoromethyl)pyridin-3-yl)oxy)methyl)piperidin-1-yl)methanone] | < 10 |
| CC1CCC(COc2cccnc2C(F)(F)F)CN1c1cncc(-c2nncs2)n1 (stereo not drawn) [Compound 232, 2-[2-Methyl-5-({[2-(trifluoromethyl)pyridin-3-yl]oxy}methyl)piperidin-1-yl]-6-(1,3,4-thiadiazol-2-yl)pyrazine] | < 10 |
| CC(C)c1cc(C(=O)N2C[C@@H](C)C[C@H](COc3cccnc3C(F)(F)F)C2)[nH]n1 [Compound 234b, (3-Isopropyl-1H-pyrazol-5-yl)((3S,5S)-3-methyl-5-(((2-(trifluoromethyl)pyridin-3-yl)oxy)methyl)piperidin-1-yl)methanone] | 10 to 50 |
| COc1ccccc1OCC1CCCN(C(=O)c2c(-c3ccccc3)n(C)c3nccnc23)C1 (stereo not drawn) [Compound 235, (3-((2-Methoxyphenoxy)methyl)piperidin-1-yl)(5-methyl-6-phenyl-5H-pyrrolo[2,3-b]pyrazin-7-yl)methanone] | 10 to 50 |
| Cn1c(-c2ccccc2)c(C(=O)N2CCCC(COc3ccccc3OC(F)(F)F)C2)c2nccnc21 (stereo not drawn) [Compound 236, (5-Methyl-6-phenyl-5H-pyrrolo[2,3-b]pyrazin-7-yl)(3-((2-(trifluoromethoxy)phenoxy)methyl)piperidin-1-yl)methanone] | 10 to 50 |
| CN(CC1CCCN(c2cnc3cnn(CC(F)F)c3n2)C1)c1cccc(C(F)(F)F)n1 (stereo not drawn) [Compound 239, N-((1-(1-(2,2-Difluoroethyl)-1H-pyrazolo[3,4-b]pyrazin-6-yl)piperidin-3-yl)methyl)-N-methyl-6-(trifluoromethyl)pyridin-2-amine] | 10 to 50 |
| O=C(c1cnc(-c2nncs2)cn1)N1C[C@@H]2[C@@H](COc3cccc(C(F)(F)F)n3)[C@@H]2C1 [Compound 247, (1R,5S,6S)-3-[5-(1,3,4-Thiadiazol-2-yl)pyrazine-2-carbonyl]-6-({[6-(trifluoromethyl)pyridin-2-yl]oxy}methyl)-3-azabicyclo[3.1.0]hexane] | > 100 |
| FC(F)(F)COCCn1ncc2ncc(N3CCCC(COc4cccnc4C(F)(F)F)C3)nc21 (stereo not drawn) [Compound 248, 1-(2-(2,2,2-Trifluoroethoxy)ethyl)-6-(3-(((2-(trifluoromethyl)pyridin-3-yl)oxy)methyl)piperidin-1-yl)-1H-pyrazolo[3,4-b]pyrazine] | < 10 |
| Cc1ccccc1OCC1CCCN(C(=O)c2c(C3CC3)n(-c3ccccc3)c3nccnc23)C1 (stereo not drawn) [Compound 255, (6-cyclopropyl-5-phenyl-5H-pyrrolo[2,3-b]pyrazin-7-yl)(3-((o-tolyloxy)methyl)piperidin-1-yl)methanone] | 10 to 50 |
| Cc1cnc2c(C(=O)N3CCCC(COc4ccccc4C)C3)c(-c3ccccc3)n(C)c2n1 (stereo not drawn) [Compound 257, (3,5-Dimethyl-6-phenyl-5H-pyrrolo[2,3-b]pyrazin-7-yl)(3-((o-tolyloxy)methyl)piperidin-1-yl)methanone] | 50 to 100 |
| O=C(N1CCCC(COc2ncccc2C(F)(F)F)C1)N1CCOC(Cc2ccccc2)C1 (stereo not drawn) [Compound 258, (2-Benzylmorpholino)(3-(((3-(trifluoromethyl)pyridin-2-yl)oxy)methyl)piperidin-1-yl)methanone] | 50 to 100 |
| FC(F)Cn1ncc2ncc(N3CC4CC4(COc4cccnc4C(F)(F)F)C3)nc21 (stereo not drawn) [Compound 260, 3-[1-(2,2-Difluoroethyl)-1H-pyrazolo[3,4-b]pyrazin-6-yl]-1-({[2-(trifluoromethyl)pyridin-3-yl]oxy}methyl)-3-azabicyclo[3.1.0]hexane] | 10 to 50 |
| O=C(c1ccc2cc[nH]c2c1)N1CC2CC2(COc2cccnc2C(F)(F)F)C1 (stereo not drawn) [Compound 261, 6-[1-({[2-(Trifluoromethyl)pyridin-3-yl]oxy}methyl)-3-azabicyclo[3.1.0]hexane-3-carbonyl]-1H-indole] | > 100 |
| Cc1cnc2c(n1)c(C(=O)N1CCCC(COc3ccccc3C)C1)c(-c1ccccc1)n2C (stereo not drawn) [Compound 263, (2,5-dimethyl-6-phenyl-5H-pyrrolo[2,3-b]pyrazin-7-yl)(3-((o-tolyloxy)methyl)piperidin-1-yl)methanone] | 10 to 50 |
| COc1cnc2c(n1)c(C(=O)N1CCCC(COc3ccccc3C)C1)c(-c1ccccc1)n2C (stereo not drawn) [Compound 264, (2-Methoxy-5-methyl-6-phenyl-5H-pyrrolo[2,3-b]pyrazin-7-yl)(3-((o-tolyloxy)methyl)piperidin-1-yl)methanone] | 10 to 50 |
| C[C@@H](Oc1ccccc1C(F)(F)F)[C@H]1CCCN(c2cnc3cnn(CC(F)F)c3n2)C1 [Compound 266a, 1-(2,2-Difluoroethyl)-6-((S)-3-((R)-1-(2-(trifluoromethyl)phenoxy)ethyl)piperidin-1-yl)-1H-pyrazolo[3,4-b]pyrazine] | 10 to 50 |

Other lines, results leading:

| EC50 [µM] | Structure (SMILES) |
| --- | --- |
| 10 to 50 | C[C@H](Oc1ccccc1C(F)(F)F)[C@@H]1CCCN(c2cnc3cnn(CC(F)F)c3n2)C1 [Compound 266b, 1-(2,2-difluoroethyl)-6-((R)-3-((S)-1-(2-(trifluoromethyl)phenoxy)ethyl)piperidin-1-yl)-1H-pyrazolo[3,4-b]pyrazine] |
| > 100 | C[C@@H]1CC[C@H](COc2cccc(C(F)(F)F)n2)CN1c1cnc2cnn(CC(F)F)c2n1 [Compound 269, 1-(2,2-Difluoroethyl)-6-((2R,5S)-2-methyl-5-(((6-(trifluoromethyl)pyridin-2-yl)oxy)methyl)piperidin-1-yl)-1H-pyrazolo[3,4-b]pyrazine] |
| 10 to 50 | C[C@@H]1CC[C@H](COc2ccc(C(F)(F)F)nc2)CN1c1cnc2cnn(CC(F)F)c2n1 [Compound 272, 1-(2,2-Difluoroethyl)-6-((2R,5S)-2-methyl-5-(((6-(trifluoromethyl)pyridin-3-yl)oxy)methyl)piperidin-1-yl)-1H-pyrazolo[3,4-b]pyrazine] |
| 10 to 50 | C[C@@H]1CC[C@H](COc2cncc(C(F)(F)F)c2)CN1c1cnc2cnn(CC(F)F)c2n1 [Compound 273, 1-(2,2-Difluoroethyl)-6-((2R,5S)-2-methyl-5-(((5-(trifluoromethyl)pyridin-3-yl)oxy)methyl)piperidin-1-yl)-1H-pyrazolo[3,4-b]pyrazine] |
| < 10 | C[C@@H]1CC[C@H](COc2cnccc2C(F)(F)F)CN1c1cnc2cnn(CC(F)F)c2n1 [Compound 274, 1-(2,2-Difluoroethyl)-6-((2R,5S)-2-methyl-5-(((4-(trifluoromethyl)pyridin-3-yl)oxy)methyl)piperidin-1-yl)-1H-pyrazolo[3,4-b]pyrazine] |
| > 100 | C[C@@H]1CC[C@H](COc2ccc(C(F)(F)F)cn2)CN1c1cnc2cnn(CC(F)F)c2n1 [Compound 275, 1-(2,2-Difluoroethyl)-6-((2R,5S)-2-methyl-5-(((5-(trifluoromethyl)pyridin-2-yl)oxy)methyl)piperidin-1-yl)-1H-pyrazolo[3,4-b]pyrazine] |
| 50 to 100 | C[C@@H]1CC[C@H](COc2cc(C(F)(F)F)ccn2)CN1c1cnc2cnn(CC(F)F)c2n1 [Compound 276, 1-(2,2-Difluoroethyl)-6-((2R,5S)-2-methyl-5-(((4-(trifluoromethyl)pyridin-2-yl)oxy)methyl)piperidin-1-yl)-1H-pyrazolo[3,4-b]pyrazine] |
| 10 to 50 | C[C@@H]1CC[C@H](COc2ncccc2C(F)(F)F)CN1c1cnc2cnn(CC(F)F)c2n1 [Compound 277, 1-(2,2-Difluoroethyl)-6-((2R,5S)-2-methyl-5-(((3-(trifluoromethyl)pyridin-2-yl)oxy)methyl)piperidin-1-yl)-1H-pyrazolo[3,4-b]pyrazine] |
| 10 to 50 | C[C@@H]1CC[C@H](COc2ccnc(C(F)(F)F)c2)CN1c1cnc2cnn(CC(F)F)c2n1 [Compound 278, 1-(2,2-Difluoroethyl)-6-((2R,5S)-2-methyl-5-(((2-(trifluoromethyl)pyridin-4-yl)oxy)methyl)piperidin-1-yl)-1H-pyrazolo[3,4-b]pyrazine] |
| < 10 | O=C(N1CCCC(COc2ccccc2)C1)C1(c2cnc(-c3ccccc3)s2)CCOCC1 (stereo not drawn) [Compound 279, (3-(Phenoxymethyl)piperidin-1-yl)(4-(2-phenylthiazol-5-yl)tetrahydro-2H-pyran-4-yl)methanone] |
| > 100 | Cc1ccccc1OCC1CCCN(C(=O)[C@@H]2CCc3nccc(=O)n32)C1 (stereo partly drawn) [Compound 280, (6S)-6-(3-((o-Tolyloxy)methyl)piperidine-1-carbonyl)-7,8-dihydropyrrolo[1,2-a]pyrimidin-4(6H)-one] |
